Assay results published in patent US20230123135A1 (priority 2020, published 2023).
Entries after “also recorded” stand apart in the source; their conditions may differ. Like-named read-outs stand apart in the source and are kept apart here.

Legend:
IL-6 [1] = experiment: animal or person; type: in vivo, Mus musculus (BALB/c); details: for inhibition of IL-6 production (%) at 3 mg/kg: Mus musculus, read-out: inhibitory rate of IL-6 production (negative control as 100%)
TNF-α [2] = experiment: animal or person; type: in vivo, Mus musculus (BALB/c); set-up: TNF-α production in BALF: unit not given here; details: for inhibition of TNF-α production at 3 mg/kg: Mus musculus, read-out: inhibitory rate of TNF-α production (negative control as 100%)
IL-1β [3] = experiment: animal or person; type: in vivo, Mus musculus (BALB/c); details: for Inhibition rate of IL-1β production (%) at 3 mg/kg: Mus musculus, read-out: inhibitory rate of IL-1β production (negative control as 100%); for IL-1 beta Mean AUC (baseline-adjusted): mouse, in vivo
[4] = test system: primary rat peritoneal macrophages
SARS-CoV-2 = experiment: microbe, parasite or virus in culture; type: cell-based; details: for IC50: read-out: IC50, inhibition of SARS-CoV-2 infection
in vitro = details: African green monkey
[5] = test system: primary rat peritoneal macrophages; remark: listed apart in the source
COX-2 = type: cell-based, mouse
COX-2 mRNA = type: cell-based, mouse
[6] = test system: NF-κB transcriptional activity; type: cell-based, mouse
IκB = experiment: Western blot, IκB degradation in RAW264.7 macrophages; type: cell-based, mouse; details: 2.5-10 μM 30 min pretreatment, LPS 1 μg/mL 15 min
[7] = in vivo
SARS-CoV-2 infection = test system: SARS-CoV-2 infection; set-up: species or system person; details: in vivo
IL-1β mRNA = type: cell-based, mouse
NO production = type: cell-based, mouse; details: read-out: IC50 for inhibition of NO production
TNF-α [8] = type: cell-based, rat; details: 24 h, LPS 100 ng/mL; read-out: IC50, secretion of TNF-α
human telomerase = details: cited from earlier work
IFN-β mRNA = type: cell-based, mouse
iNOS mRNA = type: cell-based, mouse
iNOS = type: cell-based, mouse
IL-6 [9] = type: cell-based, rat
NF-κB = experiment: Western blot, NF-κB (p50, p65) protein in RAW264.7 macrophages; type: cell-based, mouse; details: 2.5-10 μM 30 min pretreatment, LPS 1 μg/mL 15 min
TNF-α [10] = type: cell-based, mouse
PGE2 production = type: cell-based, mouse
TNF-α mRNA = type: cell-based, mouse
IL-1β [11] = type: cell-based, rat
IL-1β [12] = type: cell-based, mouse
[13] = Severe acute respiratory syndrome coronavirus 2, Vero, 24 h
[14] = 3 μM, in the absence of significant cell death

`C[C@@H]1C[C@H]2[C@@H]3CCC4=CC(=O)C=C[C@]4(C)[C@@]3(F)[C@@H](O)C[C@]2(C)[C@@]1(O)C(=O)CO` [Dexamethasone] gave an inhibition of IL-6 production (%) at 3 mg/kg (IL-6 [1]; 1 h) of 59%, an inhibition of IL-6 production (%) at 3 mg/kg (IL-6 [1]; 2 h) of 43% and an inhibition of IL-6 production (%) at 3 mg/kg (IL-6 [1]; 4 h) of 59%. It also gave an inhibition of IL-6 production (%) at 3 mg/kg (IL-6 [1]; 6 h) of 20%, an inhibition of IL-6 production (%) at 3 mg/kg (IL-6 [1]; 12 h) of 16% and an inhibition of IL-6 production (%) at 3 mg/kg (IL-6 [1]; 24 h) of 51%. For the same molecule, the “IL-6 Mean AUC (baseline-adjusted)” value (IL-6 [1]; mouse, in vivo) was 54684.9 pg·h/mL, the inhibition of TNF-α production at 3 mg/kg (TNF-α [2]; 1 h) was 25% and the inhibition of TNF-α production at 3 mg/kg (TNF-α [2]; 2 h) was 28%. For the same molecule, the inhibition of TNF-α production at 3 mg/kg (TNF-α [2]; 4 h) was 33%, the inhibition of TNF-α production at 3 mg/kg (TNF-α [2]; 6 h) was 28% and the inhibition of TNF-α production at 3 mg/kg (TNF-α [2]; 12 h) was 9%. The “TNF-alpha Mean AUC (baseline-adjusted)” value (TNF-α [2]; mouse, in vivo) was 2815.4 pg·h/mL, the Inhibition rate of IL-1β production (%) at 3 mg/kg (IL-1β [3]; 4 h) was 69% and the Inhibition rate of IL-1β production (%) at 3 mg/kg (IL-1β [3]; 6 h) was 67%. For the same molecule, the Inhibition rate of IL-1β production (%) at 3 mg/kg (IL-1β [3]; 12 h) was 77% and the “IL-1 beta Mean AUC (baseline-adjusted)” value (IL-1β [3]) was 2637.5 pg·h/mL.
With `C[C@@H]1CC[C@@]2(OC1)O[C@H]1[C@@H](O)[C@H]3[C@@H]4CC[C@H]5C[C@@H](O[C@@H]6O[C@H](CO)[C@H](O[C@@H]7O[C@H](CO)[C@@H](O)[C@H](O[C@@H]8OC[C@@H](O)[C@H](O)[C@H]8O)[C@H]7O[C@@H]7O[C@H](CO)[C@H](O)[C@H](O[C@@H]8O[C@H](CO)[C@@H](O)[C@H](O)[C@H]8O)[C@H]7O)[C@H](O)[C@H]6O)[C@H](O)C[C@]5(C)[C@H]4CC[C@]3(C)[C@H]1[C@@H]2C` [Digitonin, reference compound] the “cytotoxicity (CytoTox-GLO) compared with vehicle” value [4] was “high toxicity”.
With `Cc1cccc(C)c1OCC(=O)N[C@@H](Cc1ccccc1)[C@@H](O)C[C@H](Cc1ccccc1)NC(=O)[C@H](C(C)C)N1CCCNC1=O` [lopinavir] the “Selectivity index (SI), CC50/IC50” value (SARS-CoV-2) was 3.81, the IC50 (SARS-CoV-2; [13]) was 13.1 µM and the CC50 (in vitro) was > 50 µM.
With `CCC(CC)COC(=O)[C@H](C)N[P@](=O)(OC[C@H]1O[C@@](C#N)(c2ccc3c(N)ncnn23)[C@H](O)[C@@H]1O)Oc1ccccc1` [remdesivir] the IC50 (SARS-CoV-2; [13]) was 5.27 µM and the CC50 (in vitro) was > 50 µM.
In the case of Triton-X [reference compound], the “cell viability (MTT) compared with vehicle” value [5] is reported as “low cell viability”.
In the case of sodium meta-arsenite [SMA], the “cell viability (MTT) compared with vehicle” value ([5]; 24 h, LPS 100 ng/mL) is reported as “concentration-dependent decrease in viability”, the IC50 ([5]; read-out: IC50 for cell viability, 24 h, LPS 100 ng/mL, MTT) is reported as 5.7 µM and the “cytotoxicity (CytoTox-GLO) compared with vehicle” value ([4]; 24 h, LPS 100 ng/mL) is reported as “concentration-dependent increase in cytotoxicity”. For the same molecule, the COX-2 protein expression (COX-2) was “slightly inhibited”, the “COX-2 mRNA expression” value (COX-2 mRNA) was “not influenced” and the “LPS-induced SEAP expression (NF-κB transcriptional activity)” value [6] was “inhibited LPS-induced SEAP expression significantly”. For the same molecule, the “inhibitory rate of IL-6 production (negative control as 100%)” value (IL-6 [1]; mouse, in vivo) was 60%, the “IL-6 Mean AUC (baseline-adjusted)” value (IL-6 [1]; mouse, in vivo, 1.03 mg/kg) was 165404.0 pg·h/mL and the “IL-6 Mean AUC (baseline-adjusted)” value (IL-6 [1]; mouse, in vivo, 1.54 mg/kg) was 128034.8 pg·h/mL. The “IL-6 Mean AUC (baseline-adjusted)” value (IL-6 [1]; mouse, in vivo, 2.05 mg/kg) was 78963.1 pg·h/mL, the IκB degradation (IκB) was “markedly inhibited” and the “time until fully metabolised and excreted from the body after taking it” value [7] was 72 h. The “symptoms of SARS-CoV-2 infection after taking SMA” value (SARS-CoV-2 infection) was “effective in alleviating or treating the symptoms of SARS-CoV-2 infection; also recorded: Chest tightness and pain relieved; also recorded: Temporary relief of symptoms”, the IC50 (SARS-CoV-2) was 4.25 µM and the “expression of IL-1β mRNA” value (IL-1β mRNA) was “no effect”. The IC50 (NO production) was ~2.87 µM, the IC50 (TNF-α [8]) was 2.3 µM and the “inhibition of human telomerase” value (human telomerase) was “potent inhibitor”. For the same molecule, the “expression of IFN-β mRNA” value (IFN-β mRNA) was “no effect”, the “iNOS mRNA expression” value (iNOS mRNA) was “significantly inhibited” and the iNOS protein expression (iNOS) was “significantly inhibited”. The “secretion of IL-6” value (IL-6 [9]; [14]) was “complete inhibition”, the IC50 (IL-6 [9]; 24 h, LPS 100 ng/mL, read-out: IC50, secretion of IL-6) was 0.5 µM and the NF-κB protein level (NF-κB) was “markedly decreased”. For the same molecule, the TNF-α protein expression (TNF-α [10]) was “significantly inhibited”, the “inhibition of PGE2 production” value (PGE2 production) was 20% and the “TNF-α production in BALF” value (TNF-α [2]; mouse, in vivo) was 794. The “TNF-alpha Mean AUC (baseline-adjusted)” value (TNF-α [2]; mouse, in vivo, 1.03 mg/kg) was 7984.4 pg·h/mL, the “TNF-alpha Mean AUC (baseline-adjusted)” value (TNF-α [2]; mouse, in vivo, 1.54 mg/kg) was 6064.8 pg·h/mL and the “TNF-alpha Mean AUC (baseline-adjusted)” value (TNF-α [2]; mouse, in vivo, 2.05 mg/kg) was 4215.8 pg·h/mL. For the same molecule, the “mRNA level of TNF-α” value (TNF-α mRNA) was “significantly decreased”, the “IL-1 beta Mean AUC (baseline-adjusted)” value (IL-1β [3]; 1.03 mg/kg) was 4272.9 pg·h/mL and the “IL-1 beta Mean AUC (baseline-adjusted)” value (IL-1β [3]; 1.54 mg/kg) was 3738.3 pg·h/mL. The “IL-1 beta Mean AUC (baseline-adjusted)” value (IL-1β [3]; 2.05 mg/kg) was 3045.8 pg·h/mL, the “secretion of IL-1β” value (IL-1β [11]; [14]) was “complete inhibition” and the IC50 (IL-1β [11]; 24 h, LPS 100 ng/mL, read-out: IC50, secretion of IL-1β) was 0.8 µM. For the same molecule, the IL-1β protein expression (IL-1β [12]) was “significantly inhibited” and the CC50 (Vero cells) was 21.1 µM.
